{
  "source": "patent US20250161451A1",
  "about": "“ULTRASOUND-RESPONSIVE NANOSCALE DELIVERY PLATFORM FOR USE IN THE TREATMENT OF BIOFILM-ASSOCIATED DISEASES” (priority 2023, published 2025)",
  "origin": "cited, not measured here",
  "system": "MRSA biofilms",
  "conditions": "co-delivery with stimulated phase-shift nanodroplet platform, in vitro",
  "data": [
    {"smiles": "CN[C@H](CC(C)C)C(=O)N[C@H]1C(=O)N[C@@H](CC(N)=O)C(=O)N[C@H]2C(=O)N[C@H]3C(=O)N[C@H](C(=O)N[C@H](C(=O)O)c4cc(O)cc(O)c4-c4cc3ccc4O)[C@H](O)c3ccc(c(Cl)c3)Oc3cc2cc(c3O[C@@H]2O[C@H](CO)[C@@H](O)[C@H](O)[C@H]2O[C@H]2C[C@](C)(N)[C@H](O)[C@H](C)O2)Oc2ccc(cc2Cl)[C@H]1O", "note": "[vancomycin]", "values": [
      {"measurement": "bactericidal effect on MRSA biofilms", "result": "strong but incomplete bactericidal effect"}
    ]}
  ]
}
